Starred links: 1 amine or outer side, 2 acyl side, 3 side chain; linkers in the order of their positions; H or OH if unused. Non-standard residues stand in square brackets, D forms with d. Residues, ends and D or L forms follow the SMILES beside them. X1 = CCCC1C[C@@H](C(=O)[*:2])N([*:1])C1; NMeNle = CCCC[C@H](NC)C(=O)O; Nle = CCCC[C@H](N)C(=O)O
Assays:
[1] = target: T1, Gastrin/cholecystokinin type B receptor (Homo sapiens, UniProt P32239); experiment: Compound was tested for its binding affinity towards Cholecystokinin type B receptor in cortical membranes (CNS); type: cell membranes
T1 sequence (P32239 whole entry): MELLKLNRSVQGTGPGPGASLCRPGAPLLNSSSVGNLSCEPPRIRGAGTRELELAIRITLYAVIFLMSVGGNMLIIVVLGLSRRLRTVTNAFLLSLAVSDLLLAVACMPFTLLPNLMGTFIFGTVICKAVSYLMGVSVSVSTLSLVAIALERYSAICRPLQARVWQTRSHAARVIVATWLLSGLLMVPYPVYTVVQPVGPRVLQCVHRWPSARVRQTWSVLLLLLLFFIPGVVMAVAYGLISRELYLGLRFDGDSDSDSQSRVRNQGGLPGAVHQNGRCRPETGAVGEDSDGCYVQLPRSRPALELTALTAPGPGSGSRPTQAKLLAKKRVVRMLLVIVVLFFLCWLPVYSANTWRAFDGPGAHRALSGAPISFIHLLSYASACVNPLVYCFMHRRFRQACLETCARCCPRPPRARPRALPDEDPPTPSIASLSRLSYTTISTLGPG

[2] = target: T2, Cholecystokinin receptor type A (Homo sapiens, UniProt P32238); experiment: Compound was tested for its binding affinity towards Cholecystokinin type A receptor in pancreatic membranes; type: cell membranes
T2 sequence (P32238 whole entry): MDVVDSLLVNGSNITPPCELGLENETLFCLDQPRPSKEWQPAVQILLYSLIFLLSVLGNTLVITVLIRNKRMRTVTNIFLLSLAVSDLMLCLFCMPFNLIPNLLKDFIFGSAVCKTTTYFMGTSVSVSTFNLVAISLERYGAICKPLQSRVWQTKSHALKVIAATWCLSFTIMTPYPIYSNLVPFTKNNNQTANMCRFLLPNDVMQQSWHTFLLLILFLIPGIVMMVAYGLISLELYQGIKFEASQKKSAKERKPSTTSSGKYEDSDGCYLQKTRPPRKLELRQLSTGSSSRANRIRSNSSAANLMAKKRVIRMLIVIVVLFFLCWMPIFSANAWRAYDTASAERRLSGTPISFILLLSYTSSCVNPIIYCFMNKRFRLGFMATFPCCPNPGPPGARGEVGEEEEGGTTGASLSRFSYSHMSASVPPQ

[3] = target: T3, Cholecystokinin receptor type A (Homo sapiens) (UniProt P32238); experiment: Ratio of binding affinity of Cholecystokinin type A receptor […]
T3 sequence (whole entry): T2 sequence (P32238 whole entry)

| Structure (SMILES) | IC50 [1] [nM] | IC50 [2] [nM] | Ratio [3] |
| --- | --- | --- | --- |
| CCCCC(C(=O)OCc1ccccc1)n1nnnc1C(Cc1cn(C(=O)OCc2ccccc2)c2ccccc12)NC(=O)OCc1ccccc1 (stereo not drawn) | > 10000 | > 10000 | – |
| CCCC[C@@H](C(=O)N[C@@H](CC(=O)O)C(=O)N[C@@H](Cc1ccccc1)C(N)=O)N(C)C(=O)[C@H](Cc1c[nH]c2ccccc12)NC(=O)CN (H-GW[NMeNle]DF-NH2) | – | > 10000 | – |
| CCCC1C[C@@H](C(=O)N[C@@H](CC(=O)O)C(=O)N[C@@H](Cc2ccccc2)C(N)=O)N(C(=O)[C@H](Cc2c[nH]c3ccccc23)NC(=O)CN)C1 (stereo partly drawn) (H-GW[X1]DF-NH2) | 1.9 | 2700 | 1420 |

Further lines, results first:

| IC50 [1] [nM] | IC50 [2] [nM] | Ratio [3] | Structure (SMILES) |
| --- | --- | --- | --- |
| 4530 | > 10000 | > 1.9 | CCCC[C@@H](C(=O)N[C@@H](CC(=O)O)[C@@H](Cc1ccccc1)C(N)=O)n1nnnc1[C@H](Cc1c[nH]c2ccccc12)NC(=O)CN |
| 169 | 2180 | 12.9 | CCCC[C@H](NC(=O)[C@H](Cc1c[nH]c2ccccc12)NC(=O)CN)C(=O)N[C@@H](CC(=O)O)C(=O)N[C@@H](Cc1ccccc1)C(N)=O (H-GW[Nle]DF-NH2) |
| 4250 | 364 | 0.09 | CCCC[C@@H](C(=O)N[C@@H](CC(=O)OCc1ccccc1)[C@@H](Cc1ccccc1)C(N)=O)n1nnnc1[C@H](Cc1c[nH]c2ccccc12)NC(=O)CNC(=O)OC(C)(C)C (mixture of isomers) |
| 1880 | 36.7 | 0.02 | CCCC[C@@H](C(=O)N[C@@H](CC(=O)OCc1ccccc1)[C@@H](Cc1ccccc1)C(N)=O)n1nnnc1[C@H](Cc1c[nH]c2ccccc12)NC(=O)OC(C)(C)C (mixture of isomers) |
